Experimental data reported in paper PMC8309108, “Rapid and Sensitive Quantification of Intracellular Glycyl-Sarcosine for Semi-High-Throughput Screening for Inhibitors of PEPT-1” (Pharmaceutics, 2021).
Entries after “also recorded” stand apart in the source; their conditions may differ. Non-standard residues stand in square brackets, D forms with d. Residues, ends and D or L forms follow the SMILES beside them. Sar = CNCC(=O)O

Experiments:
[1] = target: T1, PEPT-1 (Homo sapiens, UniProt P46059); experiment: Inhibition of PEPT-1 mediated Gly-Sar uptake in Caco-2 cells (UPLC-MS/MS quantification of intracellular Gly-Sar); assay type: cell-based; conditions: for IC50: 7 d differentiation, 37 °C, pH = 6.0, three independent experiments; for Ki: converted from IC50 with the IC50-to-Ki tool, assuming competitive inhibition and a Km of 860 µM for Gly-Sar, read-out: calculated Ki
T1 construct: allowed to differentiate for at least 7 d to ensure sufficient PEPT-1 expression; host or cells: Caco-2
T1 sequence (P46059 1-708): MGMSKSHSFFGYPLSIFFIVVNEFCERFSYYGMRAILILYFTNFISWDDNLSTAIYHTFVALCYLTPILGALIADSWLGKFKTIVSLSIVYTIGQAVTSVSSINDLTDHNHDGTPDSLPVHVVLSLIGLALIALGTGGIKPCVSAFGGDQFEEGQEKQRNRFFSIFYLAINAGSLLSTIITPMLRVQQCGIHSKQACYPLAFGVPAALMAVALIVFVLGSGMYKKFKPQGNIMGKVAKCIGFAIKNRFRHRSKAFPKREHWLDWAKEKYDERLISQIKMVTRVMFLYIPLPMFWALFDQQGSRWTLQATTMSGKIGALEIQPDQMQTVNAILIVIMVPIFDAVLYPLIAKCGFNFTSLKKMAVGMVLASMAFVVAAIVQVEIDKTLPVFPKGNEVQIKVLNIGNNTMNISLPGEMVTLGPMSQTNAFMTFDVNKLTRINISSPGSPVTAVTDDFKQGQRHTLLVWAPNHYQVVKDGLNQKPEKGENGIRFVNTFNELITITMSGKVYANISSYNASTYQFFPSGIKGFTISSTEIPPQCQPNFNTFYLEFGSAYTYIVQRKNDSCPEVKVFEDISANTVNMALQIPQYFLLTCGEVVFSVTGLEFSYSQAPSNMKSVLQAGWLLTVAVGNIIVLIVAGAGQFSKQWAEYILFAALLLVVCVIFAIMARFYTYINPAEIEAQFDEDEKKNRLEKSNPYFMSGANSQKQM
Protocol: Caco-2 cells were cultivated in DMEM supplemented with 10% FBS, glutamine (2 mM), penicillin (100 U/mL), streptomycin (100 µg/mL), and 1% NEAS. They were kept at 37 °C and 5% CO2 and passaged once a week. For validation and uptake experiments, cells were seeded in 96-well plates at a density of 6.25 × 10^4 cells/cm^2 and allowed to differentiate for at least 7 d to ensure sufficient PEPT-1 expression. The uptake buffer (MES) was prepared as previously described by Sun et al. and contained 50 mM MES, 136.9 mM NaCl, 5.4 mM KCl, 1.26 mM CaCl2, 0.81 mM MgSO4 × 7 H2O, 0.5 mM Na2HPO4, 0.44 mM KH2PO4, 0.42 mM NaHCO3, and 5.54 mM glucose. The pH value of the uptake buffer was adjusted to pH = 6.0 using either HCl or NaOH solutions. Gly-Sar uptake was tested after 7, 24, and 28 d of Caco-2 cell differentiation. […] After an incubation period of 10 min at 37 °C under gentle agitation, transport was terminated by removing the solution and washing the cells with ice-cold MES buffer (100 µL/well) thrice while the plate was kept on ice. Afterwards, cells were lysed in the 96-well cell culture plate with aqueous NH4OH (10%, 50 µL/well) and sample preparation was performed as described below.
Sample preparation was performed directly in the 96-well cell culture plates. Cell lysates (50 µL) were spiked with 25 µL IS spike solution and, depending on the sample type, with either 5 µL of the respective calibration or QC solution (calibration and QC samples) or with 5 µL H2O/ACN (95/5, v/v) + 0.1% FA for volume compensation (study samples). Subsequently, all samples were filled with 180 µL ACN + 0.1% FA for protein precipitation and centrifuged for 10 min at 800 g. Finally, the 96-well plates were transferred into the Sample Manager for direct injection onto the UPLC-MS/MS system.
The quantification of Gly-Sar in cell homogenates was performed on a UPLC-MS/MS system consisting of a triple-stage quadrupole mass spectrometer (Waters Xevo TQ-XS with Z-spray ESI source) and an Acquity Classic UPLC® (Waters, Milford, MA, USA). Chromatographic separation was achieved on a Waters Cortecs UPLC® HILIC column (90 Å, 1.6 µm, 2.1 × 50 mm) heated to 60 °C with the injection volume set to 10 µL and a flow rate of 0.4 mL/min. The mobile phase consisted of H2O/ACN (95/5, v/v) + 0.1% FA (aqueous eluent; A) and ACN + 0.1% FA (ACN eluent; B). Gly-Sar was eluted with an isocratic composition of 16% A/84% B for 3 min. Subsequently, the conditions were changed to 50% A/50% B within 0.5 min and maintained for 0.5 min to flush the column. Afterwards, the initial ratio of 16% A and 84% B was restored during 0.5 min. The mass spectrometer was operated using an electrospray ionization (ESI) source in the positive ion detection mode. Quantification of Gly-Sar and IS was performed by selected reaction monitoring (SRM) using argon collision gas for collision-induced dissociation (CID). Mass spectrometric parameters were optimized for the detection of Gly-Sar and the IS using the auto-optimization feature IntelliStart of the MassLynx V4.2 system software (Waters, Milford, MA, USA).
Calibration curves were fitted by the Waters TargetLynx V4.2 software (Waters, Milford, MA, USA) using 1/x^2-weighted linear regressions of the peak area ratios of Gly-Sar and the IS. General calculations were performed using Microsoft Excel 2010 ([…]). IC50 values (i.e., the inhibitor concentration, which causes a baseline-normalized half-maximal Gly-Sar uptake) were calculated using the GraphPad Prism 9 software (version 9.1.0; GraphPad Software Inc., La Jolla, CA, USA). Intracellular Gly-Sar concentrations at varying inhibitor concentrations were fitted with nonlinear regression to a four-parameter concentration–response curve (4PL) according to the equation: […]

[2] = target: PEPT-1; conditions: read-out: reported Ki; cited from earlier work
[3] = Stability of Gly-Sar in processed cell lysate and spike solutions; assay type: physicochemical
Protocol: The assay to quantify Gly-Sar in cell homogenates was validated following the EMA and FDA guidelines on bioanalytical method validation. For this purpose, the linearity, accuracy, precision, selectivity, stability, recovery, and matrix effect of the assay were determined in three validation batches, which included eight calibration samples in duplicates and 24 QC samples at four concentrations (LLOQ, low, mid, and high QC) in sixfold determination. Accuracy (%) is the degree of agreement between the determined value and known true value and was subsequently determined by dividing the quantified mean concentration by the nominal concentration. Precision (% CV) describes the degree of agreement between individual measurements of the same analyte and was calculated by dividing the standard deviation by the quantified mean of the measurements. Chromatograms of blank cell lysate samples from six different cell passage numbers and of corresponding spiked samples were assessed for interfering signals at the retention time of Gly-Sar and IS to determine the selectivity of the method. […] Recovery was evaluated for low, mid, and high QC concentration of Gly-Sar by the comparison of peak areas of QC samples spiked after extraction with the respective peak areas of […] spiked after extraction. […] Gly-Sar integrity was further evaluated in the spike solutions. […]

[4] = target: T1, PEPT-1; parameters: method as in PMID 22490229; conditions: cited from earlier work
[5] = Caco-2 cells, 20 µM Gly-Sar, 10 min

Row | IC50 [1, 5] | Ki [1] | SMILES | Ki [2] | other results
1 |  |  | CN(CC(=O)O)C(=O)CN [Gly-Sar, glycyl-sarcosine] (H-Gly-[Sar]-OH) |  | fraction of Gly-Sar uptake that is PEPT-1 mediated ([1]; Caco-2 cells, 10 min incubation): around 86%; ratio of bottom to top of the fitted sigmoidal curves (non-inhibited, non-PEPT-1 specific Gly-Sar uptake) ([1]; mean over all measured IC50 determinations, Caco-2 cells): 14.0 ± 6.7%; deviation of peak areas from the initial values ([3]; samples stored in the autosampler, over 24 h): < 15%; time stable in spike solutions ([3]; spike solutions in H2O/ACN (95/5, v/v) + 0.1% FA): at least 9 months; Km [4]: 860 µM
2 |  |  | Nc1nc2c(ncn2COCCO)c(=O)[nH]1 [aciclovir] |  | inhibition of Gly-Sar uptake (in words) ([1]; Caco-2 cells, 20 µM Gly-Sar, 10 min, pH = 6.0, 0.1–5000 µM inhibitor): no inhibition; also recorded: did not interfere with Gly-Sar uptake; also recorded: did no inhibit the Gly-Sar uptake
3 | 45.1 ± 15.8 µM | 44 µM | CCCCc1nc(Cl)c(CO)n1Cc1ccc(-c2ccccc2-c2nn[nH]n2)cc1 [losartan] | 24 µM | 
4 | 894 ± 309 µM | 874 µM | CC(C)[C@H](N)C(=O)OCCOCn1cnc2c(=O)[nH]c(N)nc21 [valaciclovir] | 740 µM | 

Row | SMILES | IC50 [1, 5] | Ki [1] | Ki [2] | other results
5 | NCC(=O)N1CCC[C@H]1C(=O)O [Gly-Pro, glycyl-proline] (H-Gly-Pro-OH) | 257 ± 28 µM | 250 µM | 300 µM | 
